Measurements as given in patent US10238743B2 (Merck Sharp & Dohme Corp., priority 2014, dated 2019).

Legend:
[1] = biological target: soluble human BACE1 catalytic domain (Homo sapiens (Human), UniProt P56817); test: BACE1 HTRF FRET Assay; type: biochemical; conditions: Ki calculated from IC50 using the Cheng-Prusoff equation; QSY7-APPswe-Eu substrate, pH 5.0; read-out: BACE-1 Ki
Text: Na^+-Acetate pH 5.0; 1% Brij-35; Glycerol; Dimethyl Sulfoxide (DMSO); Recombinant human soluble BACE1 catalytic domain (>95% pure); APP Swedish mutant peptide substrate (QSY7-APP^swe-Eu): QSY7-EISEVNLDAEFC-Europium-amide.
A homogeneous time-resolved FRET assay can be used to determine IC50 values for inhibitors of the soluble human BACE1 catalytic domain. This assay monitors the increase of 620 nm fluorescence that resulted from BACE1 cleavage of an APPswedish APP^swe mutant peptide FRET substrate (QSY7-EISEVNLDAEFC-Europium-amide). This substrate contains an N-terminal QSY7 moiety that serves as a quencher of the C-terminal Europium fluorophore (620 nm Em). In the absence of enzyme activity, 620 nm fluorescence is low in the assay and increased linearly over 3 hours in the presence of uninhibited BACE1 enzyme. Inhibition of BACE1 cleavage of the QSY7-APP^swe-Eu substrate by inhibitors is manifested as a suppression of 620 nm fluorescence.
Varying concentrations of inhibitors at 3× the final desired concentration in a volume of 10 ul are preincubated with purified human BACE1 catalytic domain (3 nM in 10 μl) for 30 minutes at 30° C. in reaction buffer containing 20 mM Na-Acetate pH 5.0, 10% glycerol, 0.1% Brij-35 and 7.5% DSMO. Reactions are initiated by addition of 10 μl of 600 nM QSY7-APP^swe-Eu substrate (200 nM final) to give a final reaction volume of 30 μl in a 384 well Nunc HTRF plate. The reactions are incubated at 30° C. for 1.5 hours. The 620 nm fluorescence is then read on a Rubystar HTRF plate reader (BMG Labtechnologies) using a 50 millisecond delay followed by a 400 millisecond acquisition time window. Inhibitor IC50 values are derived from non-linear regression analysis of concentration response curves. Ki values are then calculated from IC50 values using the Cheng-Prusoff equation using a previously determined […] of 8 μM for the QSY7-APP^swe-Eu substrate at BACE1.

[2] = biological target: purified human autoBACE-2 (Homo sapiens (Human), UniProt Q9Y5Z0); test: BACE-2 Assay (BACE-HTRF assay); type: biochemical; conditions: Ki calculated from IC50 using the Cheng-Prusoff equation; QSY7-EISEVNLDAEFC-Eu-amide substrate, pH 5.0
Sequence of purified human autoBACE-2 (Q9Y5Z0 63-473 limits assumed): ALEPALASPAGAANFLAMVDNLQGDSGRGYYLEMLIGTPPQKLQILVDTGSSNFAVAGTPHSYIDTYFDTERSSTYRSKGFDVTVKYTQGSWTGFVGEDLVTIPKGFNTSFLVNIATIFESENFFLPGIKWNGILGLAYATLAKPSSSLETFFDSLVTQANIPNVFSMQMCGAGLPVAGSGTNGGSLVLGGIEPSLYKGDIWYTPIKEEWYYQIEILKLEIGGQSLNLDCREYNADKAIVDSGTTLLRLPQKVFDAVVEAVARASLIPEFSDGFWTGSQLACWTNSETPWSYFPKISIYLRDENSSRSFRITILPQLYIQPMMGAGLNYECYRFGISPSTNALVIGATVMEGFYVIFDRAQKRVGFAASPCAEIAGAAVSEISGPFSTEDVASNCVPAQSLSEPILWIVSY
Experimental: Inhibitor IC50s at purified human autoBACE-2 are determined in a time-resolved endpoint proteolysis assay that measures hydrolysis of the QSY7-[…]-Eu-amide FRET peptide substrate (BACE-HTRF assay). […] DMSO is present at 5% final concentration in the assay. Following laser excitation of sample wells at 320 nm, the fluorescence signal at 620 nm is collected for 400 ms following a 50 μs delay on a RUBYstar HTRF plate reader (BMG Labtechnologies). Raw RFU data is normalized to maximum (1.0 nM BACE/DMSO) and minimum (no enzyme/DMSO) RFU values. […] The Ki values are calculated from the IC50 using the Cheng-Prusoff equation.

Sequence of soluble human BACE1 catalytic domain (P56817 75-416): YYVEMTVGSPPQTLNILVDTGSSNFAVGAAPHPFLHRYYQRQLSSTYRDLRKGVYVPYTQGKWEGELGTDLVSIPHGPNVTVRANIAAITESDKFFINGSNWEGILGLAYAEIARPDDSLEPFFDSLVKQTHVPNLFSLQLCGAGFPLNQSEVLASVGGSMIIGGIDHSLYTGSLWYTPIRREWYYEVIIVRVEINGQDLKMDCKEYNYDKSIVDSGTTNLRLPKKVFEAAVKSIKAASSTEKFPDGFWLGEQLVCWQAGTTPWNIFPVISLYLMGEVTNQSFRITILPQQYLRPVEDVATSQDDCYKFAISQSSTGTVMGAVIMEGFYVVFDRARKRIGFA

Row | Structure (SMILES) | Ki [1] | Ki [2]
1 | Cc1cc(F)cnc1C(=O)Nc1ccc2c(c1)[C@@]1(C)NC(=N)N(C)S(=O)(=O)[C@@H]1CCO2 [Example 8, 5-fluoro-N-((4aR,11bR)-2-imino-3,11b-dimethyl-4,4-dioxido-2,3,4a,5,6,11b-hexahydro-1H-benzo[2,3]oxepino[4,5-e][1,2,4]thiadiazin-10-yl)-3-methylpicolinamide] | 133 nM | 86 nM
2 | CCCNc1ccc2c(c1)[C@@]1(C)NC(=N)N(C)S(=O)(=O)[C@H]1CCO2 [Example 49, (4aS,11bR)-2-imino-3,11b-dimethyl-10-(propylamino)-2,3,4a,5,6,11b-hexahydro-1H-benzo[2,3]oxepino[4,5-e][1,2,4]thiadiazine 4,4-dioxide] | 918 nM | 1980 nM
3 | CN1C(=N)N[C@]2(C)c3cc(NC(=O)c4ccc(Cl)cn4)ccc3CCC[C@@H]2S1(=O)=O [Example 23, 5-chloro-N-((4aS,11bR)-2-imino-3,11b-dimethyl-4,4-dioxido-1,2,3,4a,5,6,7,11b-octahydrobenzo[6,7]cyclohepta[1,2-e][1,2,4]thiadiazin-10-yl)picolinamide] | 7 nM | 7 nM
4 | COc1cnc2c(Nc3ccc4c(c3)[C@@]3(C)NC(=N)N(C)S(=O)(=O)[C@H]3CCO4)nccc2c1 [Example 43, (4aS,11bR)-2-imino-10-((3-methoxy-1,7-naphthyridin-8-yl)amino)-3,11b-dimethyl-2,3,4a,5,6,11b-hexahydro-1H-benzo[2,3]oxepino[4,5-e][1,2,4]-thiadiazine 4,4-dioxide] | 57 nM | 148 nM
5 | Cc1nc(C(=O)Nc2ccc3c(c2)[C@@]2(C)NC(=N)N(C)S(=O)(=O)[C@@H]2CCO3)c(C)o1 [Example 3, N-((4aR,11bR)-2-imino-3,11b-dimethyl-4,4-dioxido-2,3,4a,5,6,11b-hexahydro-1H-benzo[2,3]oxepino[4,5-e][1,2,4]thiadiazin-10-yl)-2,5-dimethyloxazole-4-carboxamide] | 265 nM | 384 nM
6 | COc1cc(Br)cnc1C(=O)Nc1ccc2c(c1)[C@@]1(C)NC(=N)N(C)S(=O)(=O)[C@H]1CCC2 [Example 27, 5-bromo-N-((4aS,11bR)-2-imino-3,11b-dimethyl-4,4-dioxido-1,2,3,4a,5,6,7,11b-octahydrobenzo[6,7]cyclohepta[1,2-e][1,2,4]thiadiazin-10-yl)-3-methoxypicolinamide] | 18 nM | 10 nM
7 | CN1C(=N)N[C@]2(C)c3cc(NC(=O)c4ccccn4)ccc3OCC[C@@H]2S1(=O)=O [Example 10, N-((4aS,11bR)-2-imino-3,11b-dimethyl-4,4-dioxido-2,3,4a,5,6,11b-hexahydro-1H-benzo[2,3]oxepino[4,5-e][1,2,4]thiadiazin-10-yl)picolinamide] | 35 nM | 15 nM
8 | COCC(=O)Nc1ccc2c(c1)[C@@]1(C)NC(=N)N(C)S(=O)(=O)[C@@H]1CCO2 [Example 4, N-((4aR,11bR)-2-imino-3,11b-dimethyl-4,4-dioxido-2,3,4a,5,6,11b-hexahydro-1H-benzo[2,3]oxepino[4,5-e][1,2,4]thiadiazin-10-yl)-2-methoxyacetamide] | 1360 nM | 890 nM
9 | COc1cnc(C(=O)Nc2ccc3c(c2)[C@@]2(C)NC(=N)N(C)S(=O)(=O)[C@H]2CCC3)c(C)c1 [Example 32, N-((4aS,11bR)-2-imino-3,11b-dimethyl-4,4-dioxido-1,2,3,4a,5,6,7,11b-octahydrobenzo[6,7]cyclohepta[1,2-e][1,2,4]thiadiazin-10-yl)-5-methoxy-3-methylpicolinamide] | 27 nM | 34 nM
10 | CN1C(=N)N[C@]2(C)c3cc(NC(=O)c4ccc(C#N)cn4)ccc3CCC[C@@H]2S1(=O)=O [Example 36] | 4 nM | 25 nM
11 | COc1cnc2c(Nc3ccc4c(c3)[C@@]3(C)NC(=N)N(C)S(=O)(=O)[C@H]3CCO4)ccnc2c1 [Example 42, (4aS,11bR)-2-imino-10-((7-methoxy-1,5-naphthyridin-4-yl)amino)-3,11b-dimethyl-2,3,4a,5,6,11b-hexahydro-1H-benzo[2,3]oxepino[4,5-e][1,2,4]-thiadiazine 4,4-dioxide] | 412 nM | 1790 nM
12 | CN1C(=N)N[C@]2(C)c3cc(NC4CCCC4)ccc3OCC[C@@H]2S1(=O)=O [Example 47, (4aS,11bR)-10-(cyclopentylamino)-2-imino-3,11b-dimethyl-2,3,4a,5,6,11b-hexahydro-1H-benzo[2,3]oxepino[4,5-e][1,2,4]thiadiazine 4,4-dioxide] | 348 nM | 716 nM
13 | Cc1ccc(C(=O)Nc2ccc3c(c2)[C@@]2(C)NC(=N)N(C)S(=O)(=O)[C@H]2CCC3)nc1 [Example 21, N-((4aS,11bR)-2-imino-3,11b-dimethyl-4,4-dioxido-1,2,3,4a,5,6,7,11b-octahydrobenzo[6,7]cyclohepta[1,2-e][1,2,4]thiadiazin-10-yl)-5-methylpicolinamide] | 45 nM | 34 nM
14 | CN1C(=N)N[C@]2(C)c3cc(NC(=O)c4ncc(F)cc4F)ccc3CCC[C@@H]2S1(=O)=O [Example 26, 3,5-difluoro-N-((4aS,11bR)-2-imino-3,11b-dimethyl-4,4-dioxido-1,2,3,4a,5,6,7,11b-octahydrobenzo[6,7]cyclohepta[1,2-e][1,2,4]thiadiazin-10-yl)picolinamide] | 18 nM | 10 nM
15 | Cc1cc(F)cnc1C(=O)Nc1ccc2c(c1)[C@@]1(C)NC(=N)N(C)S(=O)(=O)[C@H]1CCC2 [Example 31, 5-fluoro-N-((4aS,11bR)-2-imino-3,11b-dimethyl-4,4-dioxido-1,2,3,4a,5,6,7,11b-octahydrobenzo[6,7]cyclohepta[1,2-e][1,2,4]thiadiazin-10-yl)-3-methylpicolinamide] | 19 nM | 10 nM
16 | CN1C(=N)N[C@]2(C)c3cc(NC(=O)c4ccc(OC(F)F)cn4)ccc3CCC[C@@H]2S1(=O)=O [Example 22, 5-(difluoromethoxy)-N-((4aS,11bR)-2-imino-3,11b-dimethyl-4,4-dioxido-1,2,3,4a,5,6,7,11b-octahydrobenzo[6,7]cyclohepta[1,2-e][1,2,4]thiadiazin-10-yl)picolinamide] | 10 nM | 90 nM
17 | Cc1cc(C#N)cnc1C(=O)Nc1ccc2c(c1)[C@@]1(C)NC(=N)N(C)S(=O)(=O)[C@H]1CCC2 [Example 35, 5-cyano-N-((4aS,11bR)-2-imino-3,11b-dimethyl-4,4-dioxido-1,2,3,4a,5,6,7,11b-octahydrobenzo[6,7]cyclohepta[1,2-e][1,2,4]thiadiazin-10-yl)-3-methylpicolinamide] | 19 nM | 10 nM
18 | CN1C(=N)N[C@]2(C)c3cc(NC(=O)c4ccc(OC(F)(F)F)cn4)ccc3CCC[C@@H]2S1(=O)=O [Example 29, N-((4aS,11bR)-2-imino-3,11b-dimethyl-4,4-dioxido-1,2,3,4a,5,6,7,11b-octahydrobenzo[6,7]cyclohepta[1,2-e][1,2,4]thiadiazin-10-yl)-5-(trifluoromethoxy)picolinamide] | 14 nM | 144 nM
19 | COc1cnc(C(=O)Nc2ccc3c(c2)[C@@]2(C)NC(=N)N(C)S(=O)(=O)[C@H]2CCC3)cn1 [Example 34] | 17 nM | 52 nM
20 | CN1C(=N)N[C@]2(C)c3cc(NC(=O)c4ccccn4)ccc3OCC[C@H]2S1(=O)=O [Example 2, N-((4aR,11bR)-2-imino-3,11b-dimethyl-4,4-dioxido-2,3,4a,5,6,11b-hexahydro-1H-benzo[2,3]oxepino[4,5-e][1,2,4]thiadiazin-10-yl)picolinamide] | 508 nM | 279 nM
21 | CN1C(=N)N[C@]2(C)c3cc(NC(=O)c4ccc(F)cn4)ccc3OCC[C@@H]2S1(=O)=O [Example 14, 5-fluoro-N-((4aS,11bR)-2-imino-3,11b-dimethyl-4,4-dioxido-2,3,4a,5,6,11b-hexahydro-1H-benzo[2,3]oxepino[4,5-e][1,2,4]thiadiazin-10-yl)picolinamide] | 10 nM | 6 nM
